Data on 23 compounds can be found in US20250171495A1, “MUTLI-TARGETED SERINE PROTEASE INHIBITORS FOR TREATMENT OF CANCER AND VIRAL INFECTION” (Washington University, priority 2023, published 2025).

For orientation: EC50 means the concentration needed to bring the measured effect to its halfway point.

The structures appear in SMILES notation.

For the assay, the system named is VSV-SARS-CoV-2. Nature of the assay: microbe, parasite or virus in culture. As to conditions: Vesicular stomatitis virus, Calu-3, in Homo sapiens, read-out: VSV SARS CoV-2 Cell Entry EC50 (nM).

As to `CCC(C)[C@H](NC(C)=O)C(=O)N[C@@H](CCC(N)=O)C(=O)N[C@@H](Cc1ccccc1)C(=O)N[C@@H](CCCNC(=N)N)C(=O)c1nc2ccccc2s1` (stereo partly drawn) [MM3116, N-[(S)-1-[N-(S)-1-[(1,3-benzothiazol-2-yl)carbonyl]-4-guanidinobutylcarbamoyl]-2-phenylethyl](S)-2-[(2S)-2-acetylamino-3-methylvalerylamino]glutaramide], the EC50 was determined as 3.6 nM.

Consider `CC(=O)NCC(=O)N[C@@H](CCC(N)=O)C(=O)N[C@@H](Cc1ccccc1)C(=O)N[C@@H](CCCNC(=N)N)C(=O)c1nc2ccccc2s1` [MM3122, N-[(S)-1-[N-(S)-1-[(1,3-benzothiazol-2-yl)carbonyl]-4-guanidinobutylcarbamoyl]-2-phenylethyl](S)-2-[(acetylaminomethyl)carbonylamino]glutaramide], for which the EC50 is 0.43 nM.

Turning to `CC(=O)N1CCC[C@H]1C(=O)N[C@@H](CCC(N)=O)C(=O)N[C@@H](Cc1ccccc1)C(=O)N[C@@H](CCCNC(=N)N)C(=O)c1nc2ccccc2s1` [MM3123, N-[(S)-1-[N-(S)-1-[(1,3-benzothiazol-2-yl)carbonyl]-4-guanidinobutylcarbamoyl]-2-phenylethyl](S)-2-[(S)-1-acetyl-2-pyrrolidinylcarbonylamino] glutaramide], the EC50 was 0.86 nM.

As for `CC(=O)N[C@@H](CC(C)C)C(=O)N[C@@H](CCC(N)=O)C(=O)N[C@@H](Cc1ccccc1)C(=O)N[C@@H](CCCNC(=N)N)C(=O)c1nc2ccccc2s1` [MM3131, N-[(S)-1-[N-(S)-1-[(1,3-benzothiazol-2-yl)carbonyl]-4-guanidinobutylcarbamoyl]-2-phenylethyl](S)-2-[(S)-2-acetylamino-4-methylvalerylamino]glutaramide], the half-maximal effective concentration (EC50) was found to be 10.7 nM.

With `CC(=O)N[C@@H](CCC(N)=O)C(=O)N[C@@H](Cc1ccccc1)C(=O)N[C@@H](CCCNC(=N)N)C(=O)c1nc2ccccc2s1` [MM3144, N-[(S)-1-[N-(S)-1-[(1,3-benzothiazol-2-yl)carbonyl]-4-guanidinobutylcarbamoyl]-2-phenylethyl](S)-2-acetylaminoglutaramide], the half-maximal effective concentration (EC50) is 0.53 nM.

`CCC(C)[C@H](NC(C)=O)C(=O)N[C@@H](CCC(N)=O)C(=O)N[C@@H](CO)C(=O)N[C@@H](CCCNC(=N)N)C(=O)c1nc2ccccc2s1` (stereo partly drawn) [MM3177, N-[(S)-2-hydroxy-1-[N-(S)-1-[(1,3-benzothiazol-2-yl)carbonyl]-4-guanidinobutylcarbamoyl]ethyl](S)-2-[(2S)-2-acetylamino-3-methylvalerylamino]glutaramide]: the 50% effective concentration (EC50) was 36 nM.

As to `CCC(C)[C@H](NC(C)=O)C(=O)N[C@@H](CCC(N)=O)C(=O)N[C@@H](C)C(=O)N[C@@H](CCCNC(=N)N)C(=O)c1nc2ccccc2s1` (stereo partly drawn) [MM3178, N-[(S)-1-[N-(S)-1-[(1,3-benzothiazol-2-yl)carbonyl]-4-guanidinobutylcarbamoyl]ethyl](S)-2-[(2S)-2-acetylamino-3-methylvalerylamino]glutaramide], the 50% effective concentration (EC50) was found to be 10.8 nM.

Take `CCC(C)[C@H](NC(C)=O)C(=O)N[C@@H](CCC(N)=O)C(=O)N[C@H](C(=O)N[C@H](CCCNC(=N)N)C(=O)c1nc2ccccc2s1)C(C)C` (stereo partly drawn) [MM3180-1, N-[(S)-2-methyl-1-[N-(R)-1-[(1,3-benzothiazol-2-yl)carbonyl]-4-guanidinobutylcarbamoyl]propyl](S)-2-[(2S)-2-acetylamino-3-methylvalerylamino]glutaramide]: the EC50 came out at 5.3 nM.

Turning to `CCC(C)[C@H](NC(C)=O)C(=O)N[C@@H](CCC(N)=O)C(=O)N[C@H](C(=O)N[C@@H](CCCNC(=N)N)C(=O)c1nc2ccccc2s1)C(C)C` (stereo partly drawn) [MM3180-2, N-[(S)-2-methyl-1-[N-(S)-1-[(1,3-benzothiazol-2-yl)carbonyl]-4-guanidinobutylcarbamoyl]propyl](S)-2-[(2S)-2-acetylamino-3-methylvalerylamino]glutaramide], the EC50 was 12 nM.

`CCC(C)[C@H](NC(C)=O)C(=O)N[C@@H](CCC(N)=O)C(=O)N[C@H](C(=O)N[C@@H](CCCNC(=N)N)C(=O)c1nc2ccccc2s1)C(C)O` (stereo partly drawn) [MM3186, N-[(1S)-2-hydroxy-1-[N-(S)-1-[(1,3-benzothiazol-2-yl)carbonyl]-4-guanidinobutylcarbamoyl]propyl](S)-2-[(2S)-2-acetylamino-3-methylvalerylamino]glutaramide]: the concentration for a half-maximal effect (EC50) is 18.5 nM.

Consider `CCC(C)[C@H](NC(C)=O)C(=O)N[C@@H](CCC(N)=O)C(=O)N[C@@H](Cc1c[nH]c2ccccc12)C(=O)N[C@@H](CCCNC(=N)N)C(=O)c1nc2ccccc2s1` (stereo partly drawn) [MM3187, N-[(S)-2-(3-indolyl)-1-[N-(S)-1-[(1,3-benzothiazol-2-yl)carbonyl]-4-guanidinobutylcarbamoyl]ethyl](S)-2-[(2S)-2-acetylamino-3-methylvalerylamino]glutaramide], for which the EC50 came out at 22 nM.

As for `CC(=O)N1CCC[C@H]1C(=O)N[C@@H](CO)C(=O)N[C@@H](CCCCN)C(=O)N[C@@H](CCCNC(=N)N)C(=O)c1nc2ccccc2s1` [MM3194A, N-[(S)-2-hydroxy-1-[N-(S)-5-amino-1-[N-(S)-1-[(1,3-benzothiazol-2-yl)carbonyl]-4-guanidinobutylcarbamoyl]pentylcarbamoy1]ethyl]-(S)-1-acetyl-2-pyrrolidinecarboxamide], the EC50 was determined as 613 nM.

For the compound `CCC(C)[C@H](NC(C)=O)C(=O)N[C@@H](CO)C(=O)N[C@@H](Cc1ccccc1)C(=O)N[C@@H](CCCNC(=N)N)C(=O)c1nc2ccccc2s1` (stereo partly drawn) [MM4009-2, N-[(S)-2-hydroxy-1-[N-(S)-1-[N-(S)-1-[(1,3-benzothiazol-2-yl)carbonyl]-4-guanidinobutylcarbamoyl]-2-phenylethylcarbamoyl]ethyl] (2S)-2-acetylamino-3-methylvaleramide], the half-maximal effective concentration (EC50) was 40.3 nM.

`CCC(C)[C@H](NC(C)=O)C(=O)N[C@@H](CCSC)C(=O)N[C@@H](Cc1ccccc1)C(=O)N[C@H](CCCNC(=N)N)C(=O)c1nc2ccccc2s1` (stereo partly drawn) [MM4027-1, N-[(S)-3-(methylthio)-1-[N-(S)-1-[N-(R)-1-[(1,3-benzothiazol-2-yl)carbonyl]-4-guanidinobutylcarbamoyl]-2-phenylethylcarbamoyl]propyl](2S)-2-acetylamino-3-methylvaleramide]: the EC50 is 92.3 nM.

With `CCC(C)[C@H](NC(C)=O)C(=O)N[C@H](C(=O)N[C@@H](Cc1ccccc1)C(=O)N[C@@H](CCCNC(=N)N)C(=O)c1nc2ccccc2s1)C(C)O` (stereo partly drawn) [MM4028-2, N-[(1S)-2-hydroxy-1-[N-(S)-1-[N-(S)-1-[(1,3-benzothiazol-2-yl)carbonyl]-4-guanidinobutylcarbamoyl]-2-phenylethylcarbamoyl]propyl](2S)-2-acetylamino-3-methylvaleramide], the EC50 was determined as 103 nM.

With `CCC(C)[C@H](NC(C)=O)C(=O)N[C@@H](CCC(=O)O)C(=O)N[C@@H](Cc1ccccc1)C(=O)N[C@@H](CCCNC(=N)N)C(=O)c1nc2ccccc2s1` (stereo partly drawn) [MM4037-2, (S)-4-[(2S)-2-acetylamino-3-methylvalerylamino]-4-[N-(S)-1-[N-(S)-1-[(1,3-benzothiazol-2-yl)carbonyl]-4-guanidinobutylcarbamoyl]-2-phenylethylcarbamoyl]butyric acid], the EC50 is 23.9 nM.

As to `CCC(C)[C@H](NC(C)=O)C(=O)N[C@H](Cc1cc2ccccc2[nH]1)C(=O)N[C@@H](Cc1ccccc1)C(=O)N[C@@H](CCCNC(=N)N)C(=O)c1nc2ccccc2s1` (stereo partly drawn) [MM4038, N-[(R)-2-(2-indolyl)-1-[N-(S)-1-[N-(S)-1-[(1,3-benzothiazol-2-yl)carbonyl]-4-guanidinobutylcarbamoyl]-2-phenylethylcarbamoy1]ethyl](2S)-2-acetylamino-3-methylvaleramide], the 50% effective concentration (EC50) is 226 nM.

With `N=C(N)NCCC[C@H](NC(=O)[C@H](Cc1ccccc1)NC(=O)[C@H](N)Cc1c[nH]c2ccccc12)C(=O)c1nc2ccccc2s1` [PK-1-18A1, N-[(S)-1-[(1,3-benzothiazol-2-yl)carbonyl]-4-guanidinobutyl](S)-2-[(R)-2-amino-3-(3-indolyl)propionylamino]-3-phenylpropionamide], the EC50 came to 356 nM.

On to `N=C(N)NCCC[C@H](NC(=O)[C@H](Cc1ccccc1)NC(=O)[C@H](N)Cc1c[nH]c2ccccc12)C(=O)c1nc2ccc(C(=O)O)cc2s1` [PK-1-45A1, 2-[(S)-2-[(S)-2-[(R)-2-amino-3-(3-indolyl)propionylamino]-3-phenylpropionylamino]-5-guanidinovaleryl]-1,3-benzothiazole-6-carboxylic acid], for which the EC50 came out at 105 nM.

Take `CC(=O)N[C@H](Cc1c[nH]c2ccccc12)C(=O)N[C@@H](Cc1ccccc1)C(=O)N[C@@H](CCCNC(=N)N)C(=O)c1nc2ccccc2s1` [PK-1-89A1, N-[(S)-1-[(1,3-benzothiazol-2-yl)carbonyl]-4-guanidinobutyl](S)-2-[(R)-2-acetylamino-3-(3-indolyl)propionylamino]-3-phenylpropionamide]: the EC50 stood at 140 nM.

For `CC(=O)N[C@H](Cc1c[nH]c2ccccc12)C(=O)N[C@@H](Cc1ccccc1)C(=O)N[C@@H](CCCNC(=N)N)C(=O)c1nc2ccc(C(=O)O)cc2s1` [PK-1-93, 2-[(S)-2-[(S)-2-[(R)-2-acetylamino-3-(3-indolyl)propionylamino]-3-phenylpropionylamino]-5-guanidinovaleryl]-1,3-benzothiazole-6-carboxylic acid], the EC50 is 141 nM.

`CC(=O)N[C@@H](Cc1c[nH]c2ccccc12)C(=O)N[C@@H](Cc1ccccc1)C(=O)N[C@@H](CCCNC(=N)N)C(=O)c1nc2ccccc2s1` [PK-1-102A1, N-[(S)-1-[(1,3-benzothiazol-2-yl)carbonyl]-4-guanidinobutyl](S)-2-[(S)-2-acetylamino-3-(3-indolyl)propionylamino]-3-phenylpropionamide]: the EC50 was 1380 nM.

On to `CC(=O)N[C@@H](Cc1c[nH]c2ccccc12)C(=O)N[C@@H](Cc1ccccc1)C(=O)N[C@@H](CCCNC(=N)N)C(=O)c1nc2ccc(C(=O)O)cc2s1` [PK-1-103, 2-[(S)-2-[(S)-2-[(S)-2-acetylamino-3-(3-indolyl)propionylamino]-3-phenylpropionylamino]-5-guanidinovaleryl]-1,3-benzothiazole-6-carboxylic acid], for which the EC50 came to 116 nM.
